Results taken from patent US10772893B2, “2-(morpholin-4-yl)-1,7-naphthyridines” (BAYER PHARMA AKTIENGESELLSCHAFT, priority 2014, dated 2020).

test system: HeLa cells; test: Proliferation assay, crystal violet staining; conditions: Homo sapiens, 96 h, read-out: Inhibition of HeLa cell proliferation, HeLa cells, 4 days incubation

Structure (SMILES) | IC50 [nM]
C[C@@H]1COCCN1c1cc(-c2ccc(Cl)s2)c2ccnc(-c3ccn[nH]3)c2n1 [Example 238, 4-(5-chlorothiophen-2-yl)-2-[(3R)-3-methylmorpholin-4-yl]-8-(1H-pyrazol-5-yl)-1,7-naphthyridine] | 1180
Cc1ncccc1-c1cc(N2CCOC[C@H]2C)nc2c(-c3ccn[nH]3)nccc12 [Example 218, 2-[(3R)-3-methylmorpholin-4-yl]-4-(2-methylpyridin-3-yl)-8-(1H-pyrazol-5-yl)-1,7-naphthyridine] | 300
C[C@@H]1COCCN1c1cc(N=S(C)(=O)c2ccccc2F)c2ccnc(-c3ccn[nH]3)c2n1 (stereo partly drawn) [Example 139, 4-{[(2-fluorophenyl)(methyl)oxido-λ^6-sulfanylidene]amino}-2-[(3R)-3-methylmorpholin-4-yl]-8-(1H-pyrazol-5-yl)-1,7-naphthyridine] | 1370
C[C@@H]1COCCN1c1cc(-c2sccc2Cl)c2ccnc(-c3ccn[nH]3)c2n1 [Example 102, 4-(3-chloro-2-thienyl)-2-[(3R)-3-methylmorpholin-4-yl]-8-(1H-pyrazol-5-yl)-1,7-naphthyridine] | 604
C[C@H]1CN(c2cc(N3CCOCC3)nc3c(-c4ccn[nH]4)nccc23)CCO1 [Example 170, 4-[(2S)-2-methylmorpholin-4-yl]-2-(morpholin-4-yl)-8-(1H-pyrazol-5-yl)-1,7-naphthyridine] | 2410
C[C@@H]1COCCN1c1cc(-c2ccc(F)cc2N)c2ccnc(-c3ccn[nH]3)c2n1 [Example 131, 5-fluoro-2-{2-[(3R)-3-methylmorpholin-4-yl]-8-(1H-pyrazol-5-yl)-1,7-naphthyridin-4-yl}aniline] | 349
COc1ccc(Sc2cc(N3CCOC[C@H]3C)nc3c(-c4ccn[nH]4)nccc23)cc1 [Example 222, 4-[(4-methoxyphenyl)sulfanyl]-2-[(3R)-3-methylmorpholin-4-yl]-8-(1H-pyrazol-5-yl)-1,7-naphthyridine] | 975
c1coc(Cc2cc(N3CCOCC3)nc3c(-c4ccn[nH]4)nccc23)c1 [Example 310, 4-(furan-2-ylmethyl)-2-(morpholin-4-yl)-8-(1H-pyrazol-5-yl)-1,7-naphthyridine] | > 3000
Nc1ccccc1-c1cc(N2CCOCC2)nc2c(-c3ccn[nH]3)nccc12 [Example 343, 2-[2-(morpholin-4-yl)-8-(1H-pyrazol-5-yl)-1,7-naphthyridin-4-yl]aniline] | 1710
C[C@@H]1COCCN1c1cc(N(C)C2CC2)c2ccnc(-c3ccn[nH]3)c2n1 [Example 85, N-cyclopropyl-N-methyl-2-[(3R)-3-methylmorpholin-4-yl]-8-(1H-pyrazol-5-yl)-1,7-naphthyridin-4-amine] | 438
C[C@@H]1COCCN1c1cc(-c2cccc(F)c2F)c2ccnc(-c3ccn[nH]3)c2n1 [Example 72, 4-(2,3-difluorophenyl)-2-[(3R)-3-methylmorpholin-4-yl]-8-(1H-pyrazol-5-yl)-1,7-naphthyridine] | 200
Fc1ccccc1-c1cc(N2CCOCC2)nc2c(-c3ccn[nH]3)nccc12 [Example 327, 4-(2-fluorophenyl)-2-(morpholin-4-yl)-8-(1H-pyrazol-5-yl)-1,7-naphthyridine] | 1890
C[C@@H]1COCCN1c1cc(-c2cccc(S(C)(=O)=O)c2)c2ccnc(-c3cc[nH]n3)c2n1 [Example 28, 4-(3-methanesulphonylphenyl)-2-((R)-3-methylmorpholin-4-yl)-8-(2H-pyrazol-3-yl)-[1,7]naphthyridine] | 316
CS(=O)(=O)Cc1cc(N2CCOCC2)nc2c(-c3ccn[nH]3)nccc12 [Example 37, 4-methanesulphonylmethyl-2-morpholin-4-yl-8-(2H-pyrazol-3-yl)-[1,7]naphthyridine] | 5080
CS(=O)(=O)Nc1ccc(-c2cc(N3CCOCC3)nc3c(-c4ccn[nH]4)nccc23)cc1 [Example 323, N-{4-[2-(morpholin-4-yl)-8-(1H-pyrazol-5-yl)-1,7-naphthyridin-4-yl]phenyl}methanesulfonamide] | 2220
C[C@@H]1COCCN1c1cc(-c2ccnn2C(C)(C)C)c2ccnc(-c3ccn[nH]3)c2n1 [Example 110, 4-(1-tert-butyl-1H-pyrazol-5-yl)-2-[(3R)-3-methylmorpholin-4-yl]-8-(1H-pyrazol-5-yl)-1,7-naphthyridine] | 206
Cc1cc(-c2cc(N3CCOC[C@H]3C)nc3c(-c4ccn[nH]4)nccc23)cs1 [Example 234, 2-[(3R)-3-methylmorpholin-4-yl]-4-(5-methylthiophen-3-yl)-8-(1H-pyrazol-5-yl)-1,7-naphthyridine] | 1210
C[C@@H]1COCCN1c1cc(-c2cnn(C)c2)c2ccnc(-c3ccn[nH]3)c2n1 [Example 248, 2-[(3R)-3-methylmorpholin-4-yl]-4-(1-methyl-1H-pyrazol-4-yl)-8-(1H-pyrazol-5-yl)-1,7-naphthyridine] | 451
COC(=O)c1ccc(-c2cc(N3CCOC[C@H]3C)nc3c(-c4ccn[nH]4)nccc23)[nH]1 [Example 120, methyl 5-{2-[(3R)-3-methylmorpholin-4-yl]-8-(1H-pyrazol-5-yl)-1,7-naphthyridin-4-yl}-1H-pyrrole-2-carboxylate] | 354

Structure (SMILES) | IC50 [nM]
C[C@@H]1COCCN1c1cc(-c2ccnc3[nH]ccc23)c2ccnc(-c3ccn[nH]3)c2n1 [Example 104, 2-[(3R)-3-methylmorpholin-4-yl]-8-(1H-pyrazol-5-yl)-4-(1H-pyrrolo[2,3-b]pyridin-4-yl)-1,7-naphthyridine] | 499
CN(C)c1cccc(-c2cc(N3CCOCC3)nc3c(-c4ccn[nH]4)nccc23)c1 [Example 320, N,N-dimethyl-3-[2-(morpholin-4-yl)-8-(1H-pyrazol-5-yl)-1,7-naphthyridin-4-yl]aniline] | > 3000
C[C@@H]1COCCN1c1cc(-c2ccc(N3CCCC3)cc2F)c2ccnc(-c3ccn[nH]3)c2n1 [Example 134, 4-[2-fluoro-4-(pyrrolidin-1-yl)phenyl]-2-[(3R)-3-methylmorpholin-4-yl]-8-(1H-pyrazol-5-yl)-1,7-naphthyridine] | 1530
C/C=C/c1cc(N2CCOCC2)nc2c(-c3ccn[nH]3)nccc12 [Example 325, 2-(morpholin-4-yl)-4-[(1E)-prop-1-en-1-yl]-8-(1H-pyrazol-5-yl)-1,7-naphthyridine] | 999
Cc1cc(-c2cc(N3CCOC[C@H]3C)nc3c(-c4ccn[nH]4)nccc23)cnc1F [Example 92, 4-(6-fluoro-5-methylpyridin-3-yl)-2-[(3R)-3-methylmorpholin-4-yl]-8-(1H-pyrazol-5-yl)-1,7-naphthyridine] | 117
CS(=O)(=NC#N)c1ccc(-c2cc(N3CCOCC3)nc3c(-c4ccn[nH]4)nccc23)cc1 (centres unmarked) [Example 191, (methyl{4-[2-(morpholin-4-yl)-8-(1H-pyrazol-5-yl)-1,7-naphthyridin-4-yl]phenyl}oxido-λ^6-sulfanylidene)cyanamide] | 2120
Cc1cccc(-c2cc(N3CCOCC3)nc3c(-c4ccn[nH]4)nccc23)c1C [Example 312, 4-(2,3-dimethylphenyl)-2-(morpholin-4-yl)-8-(1H-pyrazol-5-yl)-1,7-naphthyridine] | > 3000
O=C1CN(c2cc(N3CCOCC3)nc3c(-c4ccn[nH]4)nccc23)CCN1 [Example 176, 4-[2-(morpholin-4-yl)-8-(1H-pyrazol-5-yl)-1,7-naphthyridin-4-yl]piperazin-2-one] | 2520
Oc1ccc(-c2cc(N3CCOCC3)nc3c(-c4ccn[nH]4)nccc23)cc1 [Example 326, 4-[2-(morpholin-4-yl)-8-(1H-pyrazol-5-yl)-1,7-naphthyridin-4-yl]phenol] | 2920
C[C@@H]1COCCN1c1cc(-c2cccnc2F)c2ccnc(-c3ccn[nH]3)c2n1 [Example 89, 4-(2-fluoropyridin-3-yl)-2-[(3R)-3-methylmorpholin-4-yl]-8-(1H-pyrazol-5-yl)-1,7-naphthyridine] | 142
CC(C)C(C)(O)c1cc(N2CCOC[C@H]2C)nc2c(-c3ccn[nH]3)nccc12 (stereo partly drawn) [Example 281, 3-methyl-2-{2-[(3R)-3-methylmorpholin-4-yl]-8-(1H-pyrazol-5-yl)-1,7-naphthyridin-4-yl}butan-2-ol] | 259
C[C@@H]1COCCN1c1cc(C2CCOCC2)c2ccnc(-c3ccn[nH]3)c2n1 [Example 107, 2-[(3R)-3-methylmorpholin-4-yl]-8-(1H-pyrazol-5-yl)-4-(tetrahydro-2H-pyran-4-yl)-1,7-naphthyridine] | 306
CS(=O)(=O)Nc1ccccc1-c1cc(N2CCOCC2)nc2c(-c3ccn[nH]3)nccc12 [Example 322, N-{2-[2-(morpholin-4-yl)-8-(1H-pyrazol-5-yl)-1,7-naphthyridin-4-yl]phenyl}methanesulfonamide] | > 3000
FC(F)(F)c1cccc(-c2cc(N3CCOCC3)nc3c(-c4ccn[nH]4)nccc23)c1 [Example 303, 2-(morpholin-4-yl)-8-(1H-pyrazol-5-yl)-4-[3-(trifluoromethyl)phenyl]-1,7-naphthyridine] | > 3000
C[C@@H]1COCCN1c1cc(C2CC[S+]([O-])CC2)c2ccnc(-c3ccn[nH]3)c2n1 (stereo partly drawn) [Example 203, 2-[(3R)-3-methylmorpholin-4-yl]-4-[1-oxidotetrahydro-2H-thiopyran-4-yl]-8-(1H-pyrazol-5-yl)-1,7-naphthyridine] | 998
COc1cc(N2CCOC[C@H]2C)nc2c(-c3cc[nH]n3)nccc12 [Example 53, 4-methoxy-2-((R)-3-methylmorpholin-4-yl)-8-(1H-pyrazol-3-yl)-[1,7]naphthyridine] | 1410
Cc1csc(-c2cc(N3CCOC[C@H]3C)nc3c(-c4ccn[nH]4)nccc23)c1 [Example 239, 2-[(3R)-3-methylmorpholin-4-yl]-4-(4-methylthiophen-2-yl)-8-(1H-pyrazol-5-yl)-1,7-naphthyridine] | 1130
Cc1noc(C)c1-c1cc(N2CCOC[C@H]2C)nc2c(-c3ccn[nH]3)nccc12 [Example 105, 4-(3,5-dimethyl-1,2-oxazol-4-yl)-2-[(3R)-3-methylmorpholin-4-yl]-8-(1H-pyrazol-5-yl)-1,7-naphthyridine] | 1000
Clc1cccc(-c2cc(N3CCOCC3)nc3c(-c4ccn[nH]4)nccc23)c1 [Example 304, 4-(3-chlorophenyl)-2-(morpholin-4-yl)-8-(1H-pyrazol-5-yl)-1,7-naphthyridine] | > 3000
